Results as given in publication PMC7588843 (Bioactive Materials, 2020).
In brackets after ≈: the same amount, converted by molar mass.

Assays:
[1] = test system: human erythrocytes; assay: Hemolytic activity in the presence of 10 μM FP; format: cell-based; conditions: for Hemolysis of human erythrocytes in the presence of FP: 50 and 100 μM, 2 h, 37 °C
[2] = test system: P. falciparum W2 (CQ-resistant) strain; assay: P. falciparum drug susceptibility assay; format: cell-based; conditions: for SIW2: IC50(NHDF)/IC50(W2); for IC50: Plasmodium falciparum, W2, 72 h, read-out: P. falciparum IC50 W2; for RI (resistance index): ratio of IC50 against W2 and D10 strains
[3] = test system: P. falciparum D10 (CQ-sensitive) strain; assay: P. falciparum drug susceptibility assay; format: cell-based; conditions: for IC50: Plasmodium falciparum, D10, 72 h, read-out: P. falciparum IC50 D10; for SID10: IC50(NHDF)/IC50(D10)
[4] = Cytotoxic activity test; format: cell-based, human; conditions: human, NHDF cells
[5] = test system: human erythrocytes; assay: Hemolytic activity without FP; format: cell-based; conditions: 50 and 100 μM, 2 h, 37 °C
[6] = In vivo pharmacokinetic evaluation in mice
[7] = test system: NHDF cells; assay: Cytotoxic activity test; format: cell-based, human; conditions: 24 and 48 h, MTT, up to twice the IC50 for P. falciparum
[8] = male, CD-1, mouse, plasma, po, 0.02 mg/kg

SMILES | Hemolysis of human erythrocytes in the presence of FP [1] | SIW2 [2] | IC50 [2] [µg/mL] | IC50 [3] [µg/mL] | IC50 [4] [µg/mL] | RI (resistance index) [2] | SID10 [3] | Hemolysis of human erythrocytes without FP [5] | other results
CCN(CC)CCCC(C)Nc1ccnc2cc(Cl)ccc12 (stereo not shown) [CQ, chloroquine diphosphate, reference compound] | drastically increased the percentage of hemolysis | 80.5 | 0.262 ± 0.102 | 0.0184 ± 0.008 |  |  |  |  | 
c1ccc2c(c1)[nH]c1ncccc12 [Compound 1, 9H-1-azacarbazole] |  |  | > 5 | > 5 |  |  |  |  | 
c1ccc2c(c1)[nH]c1cnccc12 [Compound 2, 9H-2-azacarbazole] | drastically increased the percentage of hemolysis | 10.9 | 3.67 ± 0.708 (≈ 21.8 µM) | 3.33 ± 0.742 (≈ 19.8 µM) | 40 ± 1.11 (≈ 238 µM) | 1.1 | 12.0 | None of the examined agents caused significant lysis | 
c1ccc2c(c1)[nH]c1ccncc12 [Compound 3, 9H-3-azacarbazole] | drastically increased the percentage of hemolysis | 14.4 | 2.22 ± 0.752 (≈ 13.2 µM) | 1.95 ± 0.263 (≈ 11.6 µM) | 32 ± 1.43 (≈ 191 µM) | 1.1 | 16.4 | None of the examined agents caused significant lysis | AUC(0-t) [6, 8]: 1 ng·h/mL; CL/F [6, 8]: 194 mL/min/kg; Cmax [6, 8]: 4.67 ng/mL; MRT [6, 8]: 1.28 h; Vd/F [6, 8]: 19.7 L/kg; k el [6, 8]: 0.000165 s⁻¹; Tmax ([6]; male, CD-1, mouse, plasma, po, 0.02 mg/kg, tmax, mice, i.g., 0.02 mg/kg in 3-NE): ≤ 5 min; time plasma concentrations detectable after administration ([6]; mice, i.g., 0.02 mg/kg in 3-NE): at least 8 h; t0.5 ([6]; mice, i.g., 0.02 mg/kg in 3-NE, plasma, 0.02 mg/kg): 70.33 min; NHDF cell viability [7]: negligible effect on cell viability
Cc1cccc2c1[nH]c1ncccc12 [Compound 4, 8-methyl-9H-1-azacarbazole] |  |  | > 5 | > 5 |  |  |  |  | 
Cc1ccc2[nH]c3ncccc3c2c1 [Compound 5, 6-methyl-9H-1-azacarbazole] |  |  | > 5 | > 5 |  |  |  |  | 
Cc1ccn(C)c2nc3ccccc3c1-2 [Compound 6, 1,4-dimethyl-1H-1-azacarbazole] | drastically increased the percentage of hemolysis | 2.8 | 4.18 ± 1.04 (≈ 21.3 µM) | 4.42 ± 0.458 (≈ 22.5 µM) | 11.8 ± 0.144 (≈ 59.9 µM) | 0.9 | 2.6 | None of the examined agents caused significant lysis | Hemolysis with FP compared with CQ-FP, 50 μM [1]: less hemolytic than CQ-FP complexes
c1cnc2[nH]c3ncccc3c2c1 [Compound 7, 9H-1,8-diazacarbazole] |  |  | > 5 | > 5 |  |  |  |  | 
c1cc2c(cn1)[nH]c1cnccc12 [Compound 8, 9H-2,7-diazacarbazole] |  |  | > 5 | > 5 |  |  |  |  | 
c1cnc2c(c1)[nH]c1ncccc12 [Compound 9, 9H-1,5-diazacarbazole] |  |  | > 5 | > 5 |  |  |  |  | 
c1cnc2c(c1)[nH]c1cccnc12 [Compound 10, 9H-4,5-diazacarbazole] |  |  | > 5 | > 5 |  |  |  |  | 
Cn1cccc2c3cccnc3nc1-2 [Compound 11, 1-methyl-1H-1,8-diazacarbazole] |  |  | > 5 | > 5 |  |  |  |  | 
Cn1cccc2nc3cccnc3c1-2 [Compound 12, 4-methyl-4H-4,5-diazacarbazole] |  | 10.7 | 3.99 ± 0.269 (≈ 21.8 µM) | 3.16 ± 0.621 (≈ 17.3 µM) | 42.8 ± 3.31 (≈ 234 µM) | 1.3 | 13.5 | None of the examined agents caused significant lysis | Hemolysis with FP compared with CQ-FP, 50 μM [1]: less hemolytic than CQ-FP complexes; Hemolysis with FP compared with CQ-FP, 100 μM ([1]; 100 μM): less hemolytic than CQ-FP complexes
